From patent US20240228489A1, “POSITIVE ALLOSTERIC MODULATORS OF THE MUSCARINIC ACETYLCHOLINE RECEPTOR M1” (Vanderbilt University, priority 2021, published 2024) come the findings set out here.

Experiment [1] has as its target T1, human mAChR M1 (Homo sapiens, UniProt P11229).
T1 sequence (P11229 1-460): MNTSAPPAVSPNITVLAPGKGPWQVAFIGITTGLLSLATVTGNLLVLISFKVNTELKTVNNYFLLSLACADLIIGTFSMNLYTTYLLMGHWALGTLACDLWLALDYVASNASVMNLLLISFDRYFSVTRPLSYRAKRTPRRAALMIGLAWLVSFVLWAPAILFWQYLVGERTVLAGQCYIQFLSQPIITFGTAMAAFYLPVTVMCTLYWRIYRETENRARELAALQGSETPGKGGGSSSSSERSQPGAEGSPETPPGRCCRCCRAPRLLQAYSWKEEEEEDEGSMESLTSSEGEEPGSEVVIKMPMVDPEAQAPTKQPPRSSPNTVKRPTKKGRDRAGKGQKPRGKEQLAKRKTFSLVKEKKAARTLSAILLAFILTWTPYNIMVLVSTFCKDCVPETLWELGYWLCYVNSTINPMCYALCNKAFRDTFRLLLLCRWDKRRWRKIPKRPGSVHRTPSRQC
The experiment can be described thus: mAChR M1 cell-based functional assay (calcium mobilization), PAM mode: increase in the EC20 acetylcholine response. From the text:
(§1) Chinese hamster ovary (CHO-K1) cells stably expressing rat (r)M1 were purchased from the American Type Culture Collection and cultured according to their indicated protocol. CHO cells stably expressing human (h)M2, hM3, and hM5 were described previously (Levey, et al., 1991); hM1 and hM4 cDNAs were purchased from Missouri S&T cDNA Resource; rM4 cDNA was provided by T. I. Bonner (National Institutes of Health, Bethesda, MD). rM2 and rM3 were cloned from a rat brain cDNA library and sequence verified. hM1, rM2, rM3, hM4, and rM4 cDNAs were used to stably transfect CHO-K1 cells purchased from the American Type Culture Collection using Lipofectamine2000. To make stable rM2, hM2, rM3, hM4, and rM4 cell lines for use in calcium mobilization assays, these cells also were stably transfected with a chimeric G-protein (Gqi5) (provided by B. R. Conklin, University of California, San Francisco) using Lipofectamine 2000. rM1, hM1, rM3, hM3, rM5, and hM5 cells were grown in Ham's F-12 medium containing 10% heat-inactivated fetal bovine serum (FBS), 20 mM HEPES, and 50 μg/mL G418 sulfate. rM2-Gqi5, hM2-Gqi5, and hM4-Gqi5 cells were grown in the same medium also containing 500 μg/mL Hygromycin B. Stable rM4-Gqi5 cells were grown in DMEM containing 10% heat-inactivated FBS, 20 mM HEPES, 400 μg/mL G418 sulfate, and 500 μg/mL Hygromycin B.
(§2) For high throughput measurement of agonist-evoked increases in intracellular calcium, CHO-K1 cells stably expressing muscarinic receptors were plated in growth medium lacking G418 and hygromycin at 15,000 cells/20 μL/well in Greiner 384-well black-walled, tissue culture (TC)-treated, clear-bottom plates (VWR). Cells were incubated overnight at 37° C. and 5% C02. The next day, cells were washed using an ELX 405 (BioTek) with four washes (80 μL) of assay buffer then aspirated to 20 μL. Next, 20 μL of 16 μM Fluo-4/acetoxymethyl ester (Invitrogen, Carlsbad, CA) prepared as a 2.3 mM stock in DMSO and mixed in a 1:1 ratio with 10% (w/v) Pluronic F-127 and diluted in assay buffer was added to the wells and the cell plates were incubated for 50 min at 37° C. and 5% C02. Dye was removed by washing with the ELX 405 (four 80 μL washes of assay buffer) then aspirated to 20 μL. Compound master plates were formatted in an 11 point CRC format (1:3 dilutions) in 100% DMSO with a starting concentration of 10 mM using the BRAVO liquid handler (Agilent). Test compound CRCs were then transferred to daughter plates (240 nL) using the Echo acoustic plate reformatter (Labcyte, Sunnyvale, CA) and then diluted into assay buffer (40 μL) to a 2× stock using a Thermo Fisher Combi (Thermo Fisher Scientific, Waltham, MA).
Calcium flux was measured using the Functional Drug Screening System (FDSS) 6000 (Hamamatsu Corporation, Tokyo, Japan) as an increase in the fluorescent static ratio. Compounds were applied to cells (20 μL, 2×) using the automated system of the FDSS 6000 at 4 s into the 300 s protocol and the data were collected at 1 Hz. At 144 s into the 300 s protocol, 10 μL of an EC20 concentration of the muscarinic receptor agonist acetylcholine was added (5×), followed by the addition of 12 μL of an EC80 concentration of acetylcholine at the 230 s time point (5×). Agonist activity was analyzed as a concentration-dependent increase in calcium mobilization upon compound addition. Emax values for agonist activity are expressed relative to the maximum for acetylcholine. Positive allosteric modulator activity was analyzed as a concentration-dependent increase in the EC20 acetylcholine response. Antagonist activity was analyzed as a concentration-dependent decrease in the EC80 acetylcholine response. Concentration-response curves were generated using a four-parameter logistical equation in XLfit curve fitting software (IDBS, Bridgewater, NJ) for Excel (Microsoft, Redmond, WA) or Prism (GraphPad Software, Inc., San Diego, CA). […]
Background: Calcium flux is commonly read through the fluorescence of an indicator in the cells.

Experiment [2] concerns the target T1, human mAChR M1. The experiment is described as follows: mAChR M1 cell-based functional assay (calcium mobilization), agonist mode: compound alone, Emax relative to acetylcholine maximum. The following applies: for Agonist Activity Human M1 EC50 / EC50: human mAChR M1; for Emax: relative to the maximum for acetylcholine.
Description: as §1, §2
Calcium flux was measured using the Functional Drug Screening System (FDSS) 6000 (Hamamatsu Corporation, Tokyo, Japan) as an increase in the fluorescent static ratio. Compounds were applied to cells (20 μL, 2×) using the automated system of the FDSS 6000 at 4 s into the 300 s protocol and the data were collected at 1 Hz. At 144 s into the 300 s protocol, 10 μL of an EC20 concentration of the muscarinic receptor agonist acetylcholine was added (5×), followed by the addition of 12 μL of an EC80 concentration of acetylcholine at the 230 s time point (5×). Agonist activity was analyzed as a concentration-dependent increase in calcium mobilization upon compound addition. Emax values for agonist activity are expressed relative to the maximum for acetylcholine. Positive allosteric modulator activity was analyzed as a concentration-dependent increase in the EC20 acetylcholine response. Antagonist activity was analyzed as a concentration-dependent decrease in the EC80 acetylcholine response. Concentration-response curves were generated using a four-parameter logistical equation in XLfit curve fitting software (IDBS, Bridgewater, NJ) for Excel (Microsoft, Redmond, WA) or Prism (GraphPad Software, Inc., San Diego, CA).

For `[2H]C1([2H])c2ncccc2C(=O)N1Cc1ccc(-c2ccc(F)c3nn(C([2H])([2H])[2H])cc23)cc1C` [Compound 47, 6-(4-(7-fluoro-2-(methyl-d3)-2H-indazol-4-yl)-2-methylbenzyl)-6,7-dihydro-5H-pyrrolo[3,4-b]pyridin-5-one-7,7-d2], on human mAChR M1 [1], the EC50 came out at 900 nM and the Emax stood at 76%. In addition, on human mAChR M1 [2], the “Agonist Activity Human M1 EC50” value is listed as “Inactive” and the Emax came out at 5%.

On to `[2H]C1([2H])c2ncccc2C(=O)N1Cc1c(F)cc(-c2ccc(OC)c3nn(C)cc23)cc1F` [Compound 39, 6-(2,6-difluoro-4-(7-methoxy-2-methyl-2H-indazol-4-yl)benzyl)-6,7-dihydro-5H-pyrrolo[3,4-b]pyridin-5-one-7,7-d2], for which, at human mAChR M1 [1], the EC50 came out at 112 nM and the Emax was determined as 85%. Besides, at human mAChR M1 [2], the “Agonist Activity Human M1 EC50” value is reported as “Inactive” and the Emax was found to be 9%.

Take `[2H]C1([2H])c2ncccc2C(=O)N1Cc1c(F)cc(-c2ccc(OC(F)(F)F)c3c2cnn3C([2H])([2H])[2H])cc1F` [Compound 251, 6-(2,6-difluoro-4-(1-(methyl-d3)-7-(trifluoromethoxy)-1H-indazol-4-yl)benzyl)-6,7-dihydro-5H-pyrrolo[3,4-b]pyridin-5-one-7,7-d2]: on human mAChR M1 [1], the EC50 was more than 10000 nM and the Emax was 12%. Moreover, on human mAChR M1 [2], the “Agonist Activity Human M1 EC50” value was “Inactive” and the Emax came to 2%.

Take `[2H]C1([2H])c2ncccc2C(=O)N1Cc1c(F)cc(-c2ccc(OC[C@@H](C)OC)c3nn(C)cc23)cc1F` [Compound 172, (R)-6-(2,6-difluoro-4-(7-(2-methoxypropoxy)-2-methyl-2H-indazol-4-yl)benzyl)-6,7-dihydro-5H-pyrrolo[3,4-b]pyridin-5-one-7,7-d2]: the values for the EC50 at human mAChR M1 [1] and at human mAChR M1 [2] were 354 nM and not below 10000 nM, respectively. For the same molecule, the Emax worked out at 82% at human mAChR M1 [1] and 27% at human mAChR M1 [2].

As for `[2H]C1([2H])c2ncccc2C(=O)N1Cc1c(F)cc(-c2ccc(F)c3c2cnn3C([2H])([2H])[2H])cc1F` [Compound 68, 6-(2,6-difluoro-4-(7-fluoro-1-(methyl-d3)-1H-indazol-4-yl)benzyl)-6,7-dihydro-5H-pyrrolo[3,4-b]pyridin-5-one-7,7-d2], on human mAChR M1 [1], the EC50 is more than 10000 nM and the Emax was 64%. At human mAChR M1 [2], the “Agonist Activity Human M1 EC50” value is recorded as “Inactive” and the Emax is 2%.

As for `[2H]C1([2H])c2ncccc2C(=O)N1Cc1ccc(-c2ccc3nn(C)cc3c2)cc1C` [Compound 33, 6-(2-methyl-4-(2-methyl-2H-indazol-5-yl)benzyl)-6,7-dihydro-5H-pyrrolo[3,4-b]pyridin-5-one-7,7-d2], at human mAChR M1 [1], the EC50 is 392 nM and the Emax is 72%. Moreover, on human mAChR M1 [2], the EC50 was more than 10000 nM and the Emax is 2%.

For `[2H]C1([2H])c2ncccc2C(=O)N1Cc1c(F)cc(-c2cccc3c2cnn3C(F)F)cc1F` [Compound 243, 6-(4-(1-(difluoromethyl)-1H-indazol-4-yl)-2,6-difluorobenzyl)-6,7-dihydro-5H-pyrrolo[3,4-b]pyridin-5-one-7,7-d2], on human mAChR M1 [1], the EC50 is more than 10000 nM and the Emax is 34%. In addition, at human mAChR M1 [2], the “Agonist Activity Human M1 EC50” value is recorded as “Inactive” and the Emax was 5%.

`[2H]C1([2H])c2ncccc2C(=O)N1Cc1ccc(-c2ccc3nn(C)cc3c2)cc1F` [Compound 9, 6-(2-fluoro-4-(2-methyl-2H-indazol-5-yl)benzyl)-6,7-dihydro-5H-pyrrolo[3,4-b]pyridin-5-one-7,7-d2]: at human mAChR M1 [1], the EC50 amounted to 686 nM and the Emax stood at 71%. At human mAChR M1 [2], the “Agonist Activity Human M1 EC50” value is given as “Inactive” and the maximal effect (Emax) came to 6%.

On to `[2H]C1([2H])c2ncccc2C(=O)N1Cc1c(F)cc(-c2cccc3nn(C([2H])([2H])[2H])cc23)cc1OC` [Compound 232, 6-(2-fluoro-6-methoxy-4-(2-(methyl-d3)-2H-indazol-4-yl)benzyl)-6,7-dihydro-5H-pyrrolo[3,4-b]pyridin-5-one-7,7-d2], for which, at human mAChR M1 [1], the EC50 turned out to be 760 nM and the Emax came to 80%. In addition, on human mAChR M1 [2], the “Agonist Activity Human M1 EC50” value is “Inactive” and the Emax was 8%.

Consider `[2H]C1([2H])c2ncccc2C(=O)N1Cc1c(F)cc(-c2ccc(OC3CN(S(=O)(=O)C(C)C)C3)c3nn(C)cc23)cc1F` [Compound 187, 6-(2,6-difluoro-4-(7-((1-(isopropylsulfonyl)azetidin-3-yl)oxy)-2-methyl-2H-indazol-4-yl)benzyl)-6,7-dihydro-5H-pyrrolo[3,4-b]pyridin-5-one-7,7-d2], for which, on human mAChR M1 [1], the 50% effective concentration (EC50) worked out at 473 nM and the Emax was 67%. Also, on human mAChR M1 [2], the “Agonist Activity Human M1 EC50” value is “Inactive” and the maximal effect (Emax) was determined as 1%.

As to `[2H]C1([2H])c2ncccc2C(=O)N1Cc1c(F)cc(-c2ccc(C(F)(F)F)c3nn(C([2H])([2H])[2H])cc23)cc1F` [Compound 74, 6-(2,6-difluoro-4-(2-(methyl-d3)-7-(trifluoromethyl)-2H-indazol-4-yl)benzyl)-6,7-dihydro-5H-pyrrolo[3,4-b]pyridin-5-one-7,7-d2], on human mAChR M1 [1], the EC50 came out at 592 nM and the Emax worked out at 81%. For the same molecule, at human mAChR M1 [2], the “Agonist Activity Human M1 EC50” value is listed as “Inactive” and the Emax worked out at 1%.

Take `[2H]C1([2H])c2ncccc2C(=O)N1Cc1c(F)cc(-c2ccc(OC3CC3)c3nn(C)cc23)cc1C1CC1` [Compound 202, 6-(4-(7-cyclopropoxy-2-methyl-2H-indazol-4-yl)-2-cyclopropyl-6-fluorobenzyl)-6,7-dihydro-5H-pyrrolo[3,4-b]pyridin-5-one-7,7-d2]: the results for the EC50 on human mAChR M1 [1] and at human mAChR M1 [2] were 429 nM and 3240 nM, respectively. For the same molecule, the figures for the Emax at human mAChR M1 [1] and at human mAChR M1 [2] were 81% and 44%, respectively.

Broadly, the EC50 is the concentration needed to bring the measured effect to its halfway point. By Emax is commonly meant the greatest response seen or fitted, relative to the assay's reference.
